Test systems include BT-549; CAKI-1; HCC 2998; HCT-116; HOP-62; KM12; M14; MDA-MB-435; NCI-H23; NCI-H460; NCI-H522; NCI/ADR-RES; OVCAR-4; SK-MEL-5; SNB-19; SW-620; TK-10; UACC-62; UO-31; HL-60.
What all share (experiment): inhibition of tumour cell growth, NCI panel, 48 h

From ChEMBL document CHEMBL1201862, “PubChem BioAssay data set” (2004) come the findings set out here.

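1) Cells in 96-well plates. 2) Compound, 48 h, 5 concentrations. 3) Linear interpolation between surrounding doses. 4) Unreached endpoint = highest concentration. GI50 marks 50% less growth.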 The source made the active and inactive calls. Rule as the data show it: active = GI50 up to about 1.1 µM and inactive = higher. Square brackets hold non-standard residues; d marks the D form. Peptide text beside a SMILES is read from it. Ac5c = NC1(C(=O)O)CCCC1

Turning to `NCC(=O)NC1(C(=O)O)CCCC1` (H-Gly-[Ac5c]-OH), the GI50 in the test on BT-549, in the test with CAKI-1, in the test with HCC 2998, with HCT-116, in the test on HOP-62 and with KM12 was > 100 µM (inactive) in each case. The GI50 in the test with M14, in the test on MDA-MB-435, in the test on NCI-H23, in the test with NCI-H460, in the test on NCI-H522 and with NCI/ADR-RES was > 100 µM (inactive) each time. The GI50 with OVCAR-4, with SK-MEL-5, in the test with SNB-19, in the test with SW-620, in the test on TK-10 and in the test on UACC-62 was > 100 µM (inactive) throughout. Moreover, in the test on UO-31, the GI50 was > 100 µM (inactive).
On to `Cc1c(CNc2ccc(C(=O)NC(CC(=O)O)C(=O)O)cc2)ccc2nc(N)nc(N)c12` (stereo unspecified), for which the GI50 is > 100 µM (inactive) in the test on BT-549; < 0.01 µM (active) in the test on HCC 2998; < 0.01 µM (active) with HCT-116; < 0.01 µM (active) in the test with HL-60; < 0.0103 µM (active) in the test on HOP-62; 0.0743 µM (active) in the test with KM12. Besides, the GI50 in the test with M14 is < 0.215 µM (active); in the test with MDA-MB-435 it was < 0.01 µM (active); in the test on NCI-H23, < 0.018 µM (active); in the test on NCI-H460 it was < 0.01 µM (active); with NCI-H522 it was < 0.018 µM (active); in the test on NCI/ADR-RES, < 0.01 µM (active). In addition, the GI50 in the test on OVCAR-4 is > 100 µM (inactive); with SK-MEL-5 it was 0.021 µM (active); in the test with SW-620, < 0.01 µM (active); in the test with TK-10, 1.86 µM (inactive); in the test on UACC-62, < 0.01 µM (active); with UO-31, < 0.018 µM (active).
Take `COC(=O)C(=O)C(C(=O)C(=O)Nc1ccc(C)cc1)c1nc2ccc(C(=O)c3ccccc3)cc2nc1O` (stereo unspecified): the GI50 is > 100 µM (inactive) in the test on BT-549; 39.4 µM (inactive) in the test with CAKI-1; 92.3 µM (inactive) in the test with HCC 2998; > 100 µM (inactive) in the test with HCT-116; 30.1 µM (inactive) with HL-60; 46.9 µM (inactive) in the test with HOP-62. Besides, the GI50 in the test on KM12 is 30.4 µM (inactive); with MDA-MB-435, 47.3 µM (inactive); with NCI-H23, > 100 µM (inactive); in the test on NCI-H460, 70.8 µM (inactive); with NCI-H522, 30.5 µM (inactive); in the test with NCI/ADR-RES it was 22.5 µM (inactive). The GI50 with OVCAR-4 was 49 µM (inactive); in the test on SK-MEL-5 it was 73.1 µM (inactive); with SNB-19, > 100 µM (inactive); in the test on SW-620, > 100 µM (inactive); in the test with TK-10 it was > 100 µM (inactive); in the test with UACC-62 it was > 100 µM (inactive). Further, the GI50 in the test with UO-31 is 51.2 µM (inactive).
As for `CN(C)C(=O)OC(Cn1cncn1)(Cn1cncn1)c1ccc(Cl)cc1Cl`, the GI50 with BT-549, in the test on CAKI-1, with HCC 2998, with HL-60, in the test on HOP-62 and in the test with KM12 was > 100 µM (inactive) throughout. The GI50 in the test on M14, in the test on MDA-MB-435, in the test with NCI-H460, in the test with NCI-H522, with NCI/ADR-RES and in the test with OVCAR-4 was > 100 µM (inactive) throughout. For the same compound, the GI50 in the test on SK-MEL-5, with SNB-19, in the test on SW-620, in the test with TK-10 and with UO-31 was > 100 µM (inactive) throughout.
For `C=CCSc1nc2ccccc2c(=O)n1Cc1ccco1`, the GI50 is > 100 µM (inactive) with BT-549; > 100 µM (inactive) in the test with CAKI-1; > 100 µM (inactive) with HCC 2998; 82 µM (inactive) with HCT-116; > 100 µM (inactive) in the test with HOP-62; > 100 µM (inactive) with KM12. The GI50 is > 100 µM (inactive) in the test on M14; > 100 µM (inactive) in the test with MDA-MB-435; 94.8 µM (inactive) in the test with NCI-H23; 73.5 µM (inactive) in the test on NCI-H460; 61.8 µM (inactive) with NCI-H522; 39.4 µM (inactive) in the test on NCI/ADR-RES. The GI50 in the test on OVCAR-4 is 80.5 µM (inactive); in the test with SK-MEL-5 it was 45 µM (inactive); in the test with SNB-19, > 100 µM (inactive); in the test on SW-620, > 100 µM (inactive); in the test with TK-10, > 100 µM (inactive); in the test on UACC-62 it was > 100 µM (inactive). For the same compound, in the test with UO-31, the GI50 is 91.6 µM (inactive).
With `CC(O)=NC(Cc1ccc2ccccc2c1)C(O)=NC(Cc1ccc(Cl)cc1)C(O)=NC(Cc1c[nH]c2ccccc12)C(O)=NC(CO)C(O)=NC(Cc1ccc(O)cc1)C(O)=NC(CCCN=C(N)N)C(O)=NC(CC(C)C)C(O)=NC(CCCN=C(N)N)C(=O)N1CCCC1C(O)=NC(C)C(=N)O` (stereo unspecified), the GI50 with BT-549 is 12.1 µM (inactive); with CAKI-1, 54.7 µM (inactive); with HCC 2998, 63.4 µM (inactive); in the test with HL-60, > 100 µM (inactive); in the test on HOP-62 it was 85.7 µM (inactive); in the test on KM12 it was 41.1 µM (inactive). Further, the GI50 in the test on M14 was 59.8 µM (inactive); in the test on MDA-MB-435, 40.1 µM (inactive); in the test with NCI-H23, 31.3 µM (inactive); in the test on NCI-H460, 54.7 µM (inactive); with NCI-H522, 45.9 µM (inactive); in the test with NCI/ADR-RES, 60.3 µM (inactive). Moreover, the GI50 in the test on OVCAR-4 was 74 µM (inactive); in the test on SK-MEL-5, 34.5 µM (inactive); in the test on SNB-19, 48.9 µM (inactive); in the test on SW-620, 76.7 µM (inactive); in the test with TK-10 it was 30.9 µM (inactive); in the test on UACC-62, 45.6 µM (inactive). Further, the GI50 in the test with UO-31 was 26 µM (inactive).
`C(=N\c1ccc(-c2nc3ccccc3[nH]2)cc1)/c1ccc[nH]1`: the GI50 with BT-549 was > 100 µM (inactive); in the test on CAKI-1, > 100 µM (inactive); with HCC 2998, 29.5 µM (inactive); with HCT-116, 50.9 µM (inactive); with HL-60, 1.91 µM (inactive); with HOP-62 it was 3.94 µM (inactive). Further, the GI50 was 44.6 µM (inactive) with KM12; > 100 µM (inactive) in the test on M14; 41.8 µM (inactive) in the test on MDA-MB-435; > 100 µM (inactive) with NCI-H23; 35 µM (inactive) in the test on NCI-H522; > 100 µM (inactive) with NCI/ADR-RES. Also, the GI50 is 54.2 µM (inactive) with OVCAR-4; 30.3 µM (inactive) in the test on SK-MEL-5; 73.3 µM (inactive) in the test on SW-620; > 100 µM (inactive) in the test with TK-10; 55.3 µM (inactive) in the test on UACC-62; 69.3 µM (inactive) with UO-31.
Consider `COC(CN(C(=O)c1ccccc1)C1CCC2(SCCS2)c2[nH]c3ccccc3c21)OC` (stereo unspecified), for which the GI50 in the test on BT-549 is 13.7 µM (inactive); with CAKI-1 it was 21 µM (inactive); with HCC 2998, 30.5 µM (inactive); in the test on HCT-116, 32.3 µM (inactive); in the test on HL-60 it was 16.9 µM (inactive); with HOP-62, 27.7 µM (inactive). Further, the GI50 with KM12 was 27.5 µM (inactive); with M14, 30.7 µM (inactive); with MDA-MB-435, 15.6 µM (inactive); in the test with NCI-H23, 58.6 µM (inactive); in the test with NCI-H460, 33.8 µM (inactive); in the test on NCI-H522, 13.9 µM (inactive). The GI50 in the test on NCI/ADR-RES is 18.1 µM (inactive); in the test with OVCAR-4, 28.2 µM (inactive); with SK-MEL-5 it was 26 µM (inactive); in the test on SNB-19, 22.4 µM (inactive); in the test on SW-620, 33.3 µM (inactive); in the test on TK-10, 32.7 µM (inactive). The GI50 in the test with UO-31 is 16 µM (inactive).
On to `CCOC(=O)NNC(=O)NCc1ccccc1CNC(=O)NNC(=O)OCC`, for which the GI50 in the test on BT-549, in the test with CAKI-1, with HCC 2998, in the test with HCT-116, in the test with HL-60 and in the test with KM12 was > 100 µM (inactive) throughout. The GI50 with M14, in the test on MDA-MB-435, with NCI-H23, in the test on NCI-H460, with NCI-H522 and in the test with NCI/ADR-RES was > 100 µM (inactive) in each case. The GI50 in the test on OVCAR-4, in the test with SK-MEL-5, with SNB-19, in the test on SW-620, in the test on TK-10 and with UACC-62 was > 100 µM (inactive) each time. Besides, in the test with UO-31, the GI50 is > 100 µM (inactive).
Take `COC(=O)C1(O)C(c2ccccc2)=NC2(C)CCCC21` (stereo unspecified): the GI50 with BT-549, in the test on CAKI-1, with HCC 2998, in the test on HCT-116, with HOP-62 and in the test with KM12 was > 100 µM (inactive) throughout. The GI50 with M14, in the test on MDA-MB-435, in the test with NCI-H23, in the test with NCI-H460, in the test with NCI-H522 and with NCI/ADR-RES was > 100 µM (inactive) in each case. Further, the GI50 with OVCAR-4, with SK-MEL-5, with SNB-19, in the test on SW-620, in the test on TK-10 and with UACC-62 was > 100 µM (inactive) in each case. In addition, in the test on UO-31, the GI50 was > 100 µM (inactive).
